Columns and labels:
HSV-1 [1] = test: Inhibition of HSV-1 replication in vitro, plaque assay (Example 9); assay type: cell-based
Method: Tissue culture cells were infected with HSV-1 and incubated in solutions containing Tolan-5, Tolan-10 and Tolan-11. The concentrations used ranged from one-half to three-quarters of the calculated CD50 for the respective tolan at 48 hours of treatment. Specifically, Vero cells were infected with HSV-1 at a multiplicity of infection of one for one hour. At the end of that time, the cultures were rinsed with media and fresh media containing various concentration of the respective tolan were added. Infected control cultures were incubated in media lacking hydroxylated tolan. At 1, 24, 48, and 72 hours after infection, samples were frozen at −70° C. until assayed for new virus production. Virus production was quantified by the plaque assay for each time point of infection. The results, which are expressed as plaque forming units per milliliter (pfu/ml).

HSV-1 [2] = test: HSV-1 plaque assay, infected Vero cells, moi 1 (Example 3); assay type: cell-based
Method: Cultures of African green monkey kidney cells (Vero) cells, obtained from the American Type Culture Collection, Rockville, Md. were grown to confluence in Medium 199 supplemented with 5% fetal bovine serum, 0.075% NaHCO3, and 50 μg/ml gentamycin sulfate in 25 cm^2 tissue culture flasks. Cells were infected with HSV-1 at a multiplicity of infection (moi) of one and incubated at room temperature for one hour to allow for virus attachment to and penetration of the cell. Under these conditions, approximately half of the cells are infected with virus. Thereafter, the cultures were rinsed three time with media and incubated in medium containing 50 μM or 75 μM 4, 4′-dihydroxytolan prepared in 0.2% dimethyl-sulfoxide (DMSO). Controls were treated identically, but were incubated without the dihyroxylated tolan. For purposes of comparison, HSV cell were also inoculated in the presence of 52.5 μM 4,4′-dihydroxystilbene. Due to the higher cell toxicity of the stilbene, cells were not incubated in the presence of 75 μM dihydroxystilbene.
Upon addition of the medium to the cultures and at 24 hours time periods thereafter, i.e., 0 hours, 24 hours, 48 hours, and 72 hours after addition of the drug, cells and medium were frozen at −70° C. Samples were then thawed, sonicated and titrated on Vero cells to determine the number of plaque forming units (pfu's) of virus produced by each culture.

ICP-4 = test: Western blot of ICP-4 in HSV-1 infected Vero cells; assay type: cell-based; conditions: 105 μM, 24 hours
Method: (§1) ICP-4 and ICP-27 are immediate-early regulatory proteins of HSV-1 that are required for efficient replication of this virus. To determine whether ICP-4 or ICP-27 production is altered by treatment with a hydroxylated tolan, separate cultures of Vero cells were infected with HSV-1 at an moi of 1 and incubated in control medium or medium containing 105 μM 4,4′-dihydroxytolan for 24 hours. Infected cells were scraped from the flask, collected by centrifugation, and resuspended in cold tris-buffered saline, pelleted by centrifugation, and the cell pellet frozen at −70° C. Proteins were extracted from the thawed pellets, separated by 6–15% SDS-PAGE, and assayed on a Western blot by reacting with mouse monoclonal antibody to ICP-4 or ICP-27 from Goodwin Institute for Cancer Research Inc., FL.

HSV-1 [3] = test: HSV-1 plaque assay, time of drug addition, Vero cells, moi 10 (Example 4); assay type: cell-based
Method: Vero cell cultures were infected with HSV-1 as described above in Example 3 except that the cells were infected with virus at an moi of 10. Under these conditions nearly all of the cells are infected with virus during the initial one hour incubation period. Following removal of unattached virus, the virally-infected cultures were incubated in control medium lacking a hydroxylated tolan or medium to which 105 μM 4,4′-dihydroxytolan had been added at 1, 3, 6, or 9 hours after removal of the unattached virus. At 24 hours after infection, the number of pfu's present in the cells and medium of untreated and hydroxylated tolan-treated cultures was determined.

HSV-1 [4] = test: Reversibility of inhibition of HSV replication, Vero cells, moi 1 (Example 5); assay type: cell-based; conditions: 105 μM
Method: Vero cells were grown to confluence and infected with HSV-1 at an moi of 1 and then incubated in media lacking a hydroxylated tolan (control cultures) or in media containing 105 μM 4,4′-dihydroxytolan. One set of infected cells was maintained in the dihydroxylatedtolan for a period of 72 hours. In another set of infected cells the dihydroxytolan-containing media was replaced with media lacking a hydroxylated tolan at 24 hours. In another set of cells the tolan-containing media was replaced with media lacking the hydroxylated tolan at 48 hours after infection. The number of infectious HSV particles produced by each set of infected cells was determined by plaque assay.

Vero cells [5] = test: MTT colorimetric cell toxicity assay; assay type: cell-based, African green monkey
Method: Cell toxicity of the tolans 4,4′-dihydroxytolan (“Tolan-5”), 3,4′,5-trihydroxytolan (“Tolan-10”) and 4-hydroxy-4′-trifluoromethyltolan (“Tolan-11”) was determined using an MTT assay. In this assay, cells are exposed to MTT, 3-(4,5-dimethylthiazol-2-yl)-2,5-diphenyltetrazolium bromide, which is taken into the cells and reduced by mitochondrial dehydrogenase to a purple formazan, a large molecule which is unable to pass through intact cell membranes, and therefore accumulates in healthy cells. The ability of cells to reduce MTT is an indication of mitochondrial integrity and activity, which may be interpreted as a measure of viability. Solubilization of the cells results in the liberation of the product which can readily be detected spectrophotometrically.
Various concentrations of Tolan-5, Tolan-10 and Tolan-11 were added to 96 well tissue culture plates that had been seeded with Vero cells. The plates were then incubated at 37° C. in 5% CO2/95% air for 24, 48 and 72 hours. At the end of each time point, 50 μl of MTT (1 mg/ml) was added to the tissue culture plates which were then incubated for an additional four hours. At the end of that time, dimethyl sulfoxide (DMSO) was added to dissolve the cells and formazan, and the plates were read spectrophotometrically at 540 nm. […] Presented in Table I below are the toxicity results for Tolan-5, Tolan-10, and Tolan-11 measured at 24, 48 and 72 hours of treatment.

HSV-1 [6] = test: Direct inactivation of HSV-1 inoculum, residual pfu by plaque assay; assay type: cell-based; conditions: 105 μM, room temperature, 1 to 60 minutes, data not shown
Method: To determine whether hydroxylated tolans block formation of infectious herpes virus particles by directly inactivating the virus, a standard inoculum of HSV-1 was mixed with 105 μM 4,4′-dihydroxytolan in medium, with 0.2% DMSO in medium, or with media alone and placed at room temperature. The number of residual pfu's present at 1, 10, 30, and 60 minutes after addition of each respective solution to the virus was determined by plaque assay.

Vero cells [7] = test: Cell viability studies, uninfected Vero cells; assay type: cell-based, African green monkey; conditions: 105 μM, 24 hours
Method: Cell viability studies confirmed that treatment of uninfected Vero cells with 105 μM 4,4′-dihydroxytolan for 24 hours was not toxic.

ICP-27 = test: Western blot of ICP-27 in HSV-1 infected Vero cells; assay type: cell-based; conditions: 105 μM, 24 hours
Method: as §1

SMILES: Oc1ccc(C#Cc2ccc(O)cc2)cc1 [Tolan-5, 4,4′-dihydroxytolan]
- inhibition of virus, comparison of concentrations (HSV-1 [1]; 75 μm versus 50 μm): more inhibitory to the virus at 75 μm that at 50 μm
- HSV-1 production (HSV-1 [1]; Vero cells, moi 1, up to 72 hours): inhibited HSV-1 production
- reduction of new virus production (HSV-1 [2]; 50 μM): 95%
- infectious HSV particles in cultures (HSV-1 [2]; 75 μM continuously, by 72 hours): virtually undetectable
- inhibition at 75 µM (HSV-1 [2]; Human alphaherpesvirus 1, 75 μM, 24 hours, Vero cells, moi 1, read-out: inhibition of formation of infectious virus particles): > 99%
- synthesis of ICP-4 (ICP-4): significantly reduced
- inhibition of production of virus (HSV-1 [3]; 105 μM added 6 hours after infection, pfu at 24 hours, moi 10): approximately 90%
- reduction of production of virus (HSV-1 [3]; 105 μM added one hour after infection, pfu at 24 hours, moi 10): more than 99%
- inhibition at 105 µM (HSV-1 [3]; Human alphaherpesvirus 1, Vero, 105 μM added 3 hours after infection, pfu at 24 hours, moi 10, read-out: inhibition of production of virus): ~90%
- formation of infectious virus particles (HSV-1 [3]; added 9 hours after infection): not inhibited
- reversibility of inhibitory effect on HSV replication (HSV-1 [4]; drug removed at 24 or 48 hours): reversible
- cell killing on prolonged exposure (HSV-1 [4]; prolonged period of time, mammalian cells): does not kill the cells
- CD50 (Vero cells [5]; 48 hours): 106 µM
- CD50 (Vero cells [5]; 72 hours): 84.0 µM
- direct inactivation of HSV (HSV-1 [6]): did not directly inactivate HSV
- toxicity to uninfected Vero cells (Vero cells [7]): not toxic
- synthesis of ICP-27 (ICP-27): significantly reduced
